ChEMBL document CHEMBL1833830, “1-[2-(2-Benzoyl- and 2-benzylphenoxy)ethyl]uracils as potent anti-HIV-1 agents” (Bioorg Med Chem, 2011)
The source made the active and inactive calls. The rule behind the calls is not given here.

Columns and labels:
Yellow fever virus = test: Antiviral activity against Yellow fever virus assessed as inhibition of viral replication; format: functional, organism-based
[1] = Cytotoxicity against human MT4 cells after 4 days by MTT assay; format: cell-based
Rift Valley fever virus = test: Antiviral activity against Rift Valley fever virus assessed as inhibition of viral replication; format: functional, organism-based
Feline coronavirus = test: Antiviral activity against Feline coronavirus assessed as inhibition of viral replication; format: functional, organism-based
Human respirovirus 3 = test: Antiviral activity against Parainfluenza 3 virus assessed as inhibition of viral replication; format: functional, organism-based
West Nile virus = test: Antiviral activity against West Nile virus assessed as inhibition of viral replication; format: functional, organism-based
Coxsackievirus B4 = test: Antiviral activity against Coxsackievirus B4 assessed as inhibition of viral replication; format: functional, organism-based
[2] = system: Mammalian orthoreovirus 1; test: Antiviral activity against Reovirus 1 assessed as inhibition of viral replication; format: functional, organism-based
Sindbis virus = test: Antiviral activity against Sindbis virus assessed as inhibition of viral replication; format: functional, organism-based
in vitro [3] = details: human, MT4 cells
Punta Toro virus = test: Antiviral activity against Punta Toro virus assessed as inhibition of viral replication; format: functional, organism-based
[4] = system: Vesicular stomatitis virus; test: Antiviral activity against Vesicular stomatitis virus assessed as inhibition of viral replication; format: functional, organism-based
in vitro [5] = details: human, MT4 cells; remark: listed apart in the source
Dengue virus = test: Antiviral activity against Dengue virus assessed as inhibition of viral replication; format: functional, organism-based
[6] = Inhibition of DNA-dependent DNA polymerase activity of HIV1 reverse transcriptase p66/p66 homodimer using activated DNA and [alpha-32P]dATP after 30 mins by liquid scintillation counting; set-up: species or system Human immunodeficiency virus 1
[7] = system: Human immunodeficiency virus 1; test: microbe, parasite or virus in culture; details: Human immunodeficiency virus 1, 3B, MT4, 96 h
[8] = system: Human immunodeficiency virus 2; test: Antiviral activity against Human immunodeficiency virus type 2 ROD infected in human CEM cells assessed as inhibition of virus-induced giant cell formation after 4 days by microscopic analysis; format: functional, organism-based; details: ISOLATE ROD, CCRF-CEM
Vaccinia virus = test: Antiviral activity against Vaccinia virus assessed as inhibition of viral replication; format: functional, organism-based; details: Orthopoxvirus vaccinia
Human alphaherpesvirus 1 = test: Antiviral activity against HSV1 assessed as inhibition of viral replication; format: functional, organism-based
[9] = system: Respiratory syncytial virus; test: Antiviral activity against Respiratory syncytial virus assessed as inhibition of viral replication; format: functional, organism-based
[10] = system: Human immunodeficiency virus 1; format: functional, organism-based; details: Human immunodeficiency virus 1, 3B, MT4, 96 h
[11] = system: Human immunodeficiency virus 2; test: Antiviral activity against Human immunodeficiency virus type 2 ROD infected in human MT4 cells assessed as inhibition of virus-induced cytopathic effect after 4 days by MTT assay; format: functional, organism-based; details: ISOLATE ROD
Human alphaherpesvirus 2 = test: Antiviral activity against HSV-2 assessed as inhibition of viral replication; format: functional, organism-based
[12] = target: Human immunodeficiency virus type 1 reverse transcriptase (Human immunodeficiency virus 1, UniProt Q72547); test: Inhibition of RNA-dependent DNA polymerase activity of HIV1 reverse transcriptase p66/p51 heterodimer using [8-3H]dGTP as substrate after 30 mins by liquid scintillation counting

SMILES | Activity (Yellow fever virus) | CC50 at 96 h [1] | Activity (Rift Valley fever virus) | Activity (Feline coronavirus) | Activity (Human respirovirus 3) | Activity (West Nile virus) | Activity (Coxsackievirus B4) | Activity [2] | Activity (Sindbis virus) | selectivity ratio (in vitro [3]) | Activity (Punta Toro virus) | Activity [4] | selectivity ratio (in vitro [5]) | Activity (Dengue virus) | Ki [6] | EC50 [7] | Activity [8] | Activity (Vaccinia virus) | Activity (Human alphaherpesvirus 1) | Activity [9] | further results
Cc1cccc(C(=O)c2cc(Cl)ccc2OCCn2ccc(=O)[nH]c2=O)c1 | inactive | > 325 µM | inactive | inactive | inactive | inactive | inactive | inactive | inactive | > 6 | inactive | inactive | > 6250 | inactive | 490 nM | 52 nM | inactive | inactive | inactive | inactive | EC50 [10]: 52 µM; Activity [11]: inactive; Activity (Human alphaherpesvirus 2): inactive; Ki [12]: 210 nM
Cc1cc(C)cc(C(=O)c2cc(Cl)ccc2OCCn2c(C)cc(=O)[nH]c2=O)c1 | inactive | > 303 µM | inactive | inactive | inactive | inactive | inactive | inactive | inactive | > 74 | inactive | inactive | > 15100 | inactive | 730 nM | 20 nM | inactive | inactive | inactive | inactive | EC50 [10]: 4.09 µM; Activity [11]: inactive; Activity (Human alphaherpesvirus 2): inactive; Ki [12]: 1700 nM
O=C(c1ccccc1)c1cc(F)ccc1OCCn1ccc(=O)[nH]c1=O | inactive | > 353 µM | inactive | inactive | inactive | inactive | inactive | inactive | inactive | > 2 | inactive | inactive | > 694 | inactive | 2900 nM | 510 nM | inactive | inactive | inactive | inactive | EC50 [10]: 171 µM; Activity [11]: inactive; Activity (Human alphaherpesvirus 2): inactive; Ki [12]: 2600 nM
O=C(c1ccccc1)c1cc(Br)ccc1OCCn1ccc(=O)[nH]c1=O | inactive | > 301 µM | inactive | inactive | inactive | inactive | inactive | inactive | inactive | 1 | inactive | inactive | > 4630 | inactive | 2000 nM | 65 nM | inactive | inactive | inactive | inactive | EC50 [10]: > 301 µM; Activity [11]: inactive; Activity (Human alphaherpesvirus 2): inactive; Ki [12]: 450 nM
O=C(c1cc(Br)cc(Br)c1)c1cc(Cl)ccc1OCCn1ccc(=O)[nH]c1=O | inactive | > 236 µM | inactive | inactive | inactive | inactive | inactive | inactive | inactive | 1 | inactive | inactive | > 7390 | inactive | 2300 nM | 32 nM | inactive | inactive | inactive | inactive | EC50 [10]: > 237 µM; Activity [11]: inactive; Activity (Human alphaherpesvirus 2): inactive; Ki [12]: 470 nM
